Columns and labels:
Experiment in all cases: biochemical
PLK1 = PLK1 (Homo sapiens, UniProt P53350); set-up: University of Dundee kinase panel, per cent inhibition of phosphorylation at ATP Km
Procedure: The METi and RAFi were screened against kinase panels (SelectScreen, Invitrogen; University of Dundee, Division of Signal Transduction Therapy, UK; Upstate Biotechnology/Millipore, Billerica, MA). In these selectivity assays the concentration of ATP was set to the Km value of ATP for each kinase tested to allow for a relative potency comparison between the various kinases. The compounds were tested at 1 µM final concentration. […] (A) Kinase selectivity screen (KSS) performed at Upstate Biotechnology. […] (B) KSS performed at University of Dundee (Division of Signal Transduction Therapy). […] (PDF) Click here for additional data file. Supplementary file pone.0039653.s002.pdf: Figure S2 Kinase Selectivity Screen of RAFi. (A) Kinase selectivity screen (KSS) performed at University of Dundee (Division of Signal Transduction Therapy). Values in % inhibition of phosphorylation given 1 µM of RAFi compared to control. (B) KSS performed at Invitrogen (Selectscreen Service) compared to control. Values in % inhibition of phosphorylation given 1 µM of RAFi. (C) Cell based dose response kinase inhibition of indicated kinases by RAFi. (PDF) Click here for additional data file.

CDK3/cyclinE = CDK3/cyclinE (Homo sapiens, UniProt Q00526); conditions: read-out: Upstate KSS % inhibition at 1uM
Procedure: (§1) In these selectivity assays the concentration of ATP was set to the Km value of ATP for each kinase tested to allow for a relative potency comparison between the various kinases. The compounds were tested at 1 µM final concentration. […] (A) Kinase selectivity screen (KSS) performed at Upstate Biotechnology. […] (B) KSS performed at University of Dundee (Division of Signal Transduction Therapy). […] (PDF) Click here for additional data file.

CDK2/CyclinA = CDK2/CyclinA (Homo sapiens, UniProt P24941); conditions: read-out: Upstate KSS % inhibition at 1uM
Procedure: as §1

CAMKIIbeta = target: T1, CAMKIIbeta (Homo sapiens, UniProt Q13554); conditions: read-out: Upstate KSS % inhibition at 1uM
T1 construct: gene CAMK2B
Procedure: as §1

TSSK2 = TSSK2 (Homo sapiens, UniProt Q96PF2); conditions: read-out: Upstate KSS % inhibition at 1uM
Procedure: as §1

rat CK1delta = target: T2, rat CK1delta (Rattus norvegicus, UniProt Q06486); conditions: read-out: Upstate KSS % inhibition at 1uM
T2 construct: gene Csnk1d
Procedure: as §1

GRK3 = GRK3 (Homo sapiens, UniProt P35626); conditions: read-out: Upstate KSS % inhibition at 1uM
Procedure: as §1

KDR = KDR (Homo sapiens, UniProt P35968); conditions: read-out: Upstate KSS % inhibition at 1uM
Sequence of KDR (P35968 whole entry): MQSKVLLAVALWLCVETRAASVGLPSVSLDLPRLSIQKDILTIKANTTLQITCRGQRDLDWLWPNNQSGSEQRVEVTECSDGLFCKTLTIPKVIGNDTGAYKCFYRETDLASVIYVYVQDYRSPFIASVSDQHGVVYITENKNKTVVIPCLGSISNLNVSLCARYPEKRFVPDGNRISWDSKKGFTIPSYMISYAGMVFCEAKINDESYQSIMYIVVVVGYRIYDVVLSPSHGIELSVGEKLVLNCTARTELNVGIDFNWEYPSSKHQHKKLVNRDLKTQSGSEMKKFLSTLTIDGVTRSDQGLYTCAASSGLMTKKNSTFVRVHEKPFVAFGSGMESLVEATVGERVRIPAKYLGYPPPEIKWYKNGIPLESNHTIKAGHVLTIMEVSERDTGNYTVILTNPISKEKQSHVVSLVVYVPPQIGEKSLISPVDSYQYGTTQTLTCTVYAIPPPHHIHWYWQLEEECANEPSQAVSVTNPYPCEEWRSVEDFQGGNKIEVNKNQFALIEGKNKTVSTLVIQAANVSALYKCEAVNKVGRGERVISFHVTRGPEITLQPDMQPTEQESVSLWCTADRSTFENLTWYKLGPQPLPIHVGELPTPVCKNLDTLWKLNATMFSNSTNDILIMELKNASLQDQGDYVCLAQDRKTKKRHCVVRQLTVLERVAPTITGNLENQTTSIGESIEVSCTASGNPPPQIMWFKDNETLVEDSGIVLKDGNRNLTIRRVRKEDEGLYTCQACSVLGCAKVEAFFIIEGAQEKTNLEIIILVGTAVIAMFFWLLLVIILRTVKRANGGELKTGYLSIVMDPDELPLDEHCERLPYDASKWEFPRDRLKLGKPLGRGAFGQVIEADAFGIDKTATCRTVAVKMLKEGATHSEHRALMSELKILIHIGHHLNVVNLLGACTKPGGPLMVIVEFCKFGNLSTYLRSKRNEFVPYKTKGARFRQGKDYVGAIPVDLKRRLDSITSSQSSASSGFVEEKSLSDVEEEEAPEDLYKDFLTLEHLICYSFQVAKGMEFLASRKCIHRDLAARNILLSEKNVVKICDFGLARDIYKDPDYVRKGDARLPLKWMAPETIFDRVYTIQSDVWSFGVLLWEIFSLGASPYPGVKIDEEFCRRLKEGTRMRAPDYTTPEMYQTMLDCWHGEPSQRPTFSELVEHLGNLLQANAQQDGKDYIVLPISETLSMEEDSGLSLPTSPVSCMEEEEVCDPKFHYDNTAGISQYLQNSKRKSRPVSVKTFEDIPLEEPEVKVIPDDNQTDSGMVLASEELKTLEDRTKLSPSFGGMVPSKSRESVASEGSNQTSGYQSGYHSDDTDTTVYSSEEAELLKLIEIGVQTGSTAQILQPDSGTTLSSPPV
Procedure: as §1

ROCK-11 = target: T3, ROCK-11 (Homo sapiens, UniProt O75116); conditions: read-out: Upstate KSS % inhibition at 1uM
T3 construct: gene ROCK2
Procedure: as §1

LIMK1 = LIMK1 (Homo sapiens, UniProt P53667); conditions: read-out: Upstate KSS % inhibition at 1uM
Procedure: as §1

PDGFRalpha = target: T4, PDGFRalpha (Homo sapiens, UniProt P16234); conditions: read-out: Upstate KSS % inhibition at 1uM
T4 construct: gene PDGFRA
Procedure: as §1

Yes = target: T5, Yes (Homo sapiens, UniProt P07947); conditions: read-out: Upstate KSS % inhibition at 1uM
T5 construct: gene YES1
Procedure: as §1

CaMKIV = target: T6, CaMKIV (Homo sapiens, UniProt Q16566); conditions: read-out: Upstate KSS % inhibition at 1uM
T6 construct: gene CAMK4
Procedure: as §1

ASK1 = target: T7, ASK1 (Homo sapiens, UniProt Q99683); conditions: read-out: Upstate KSS % inhibition at 1uM
T7 construct: gene MAP3K5
Procedure: as §1

Pyk2 = target: T8, Pyk2 (Homo sapiens, UniProt Q14289); conditions: read-out: Upstate KSS % inhibition at 1uM
T8 construct: gene PTK2B
T8 sequence (Q14289 whole entry): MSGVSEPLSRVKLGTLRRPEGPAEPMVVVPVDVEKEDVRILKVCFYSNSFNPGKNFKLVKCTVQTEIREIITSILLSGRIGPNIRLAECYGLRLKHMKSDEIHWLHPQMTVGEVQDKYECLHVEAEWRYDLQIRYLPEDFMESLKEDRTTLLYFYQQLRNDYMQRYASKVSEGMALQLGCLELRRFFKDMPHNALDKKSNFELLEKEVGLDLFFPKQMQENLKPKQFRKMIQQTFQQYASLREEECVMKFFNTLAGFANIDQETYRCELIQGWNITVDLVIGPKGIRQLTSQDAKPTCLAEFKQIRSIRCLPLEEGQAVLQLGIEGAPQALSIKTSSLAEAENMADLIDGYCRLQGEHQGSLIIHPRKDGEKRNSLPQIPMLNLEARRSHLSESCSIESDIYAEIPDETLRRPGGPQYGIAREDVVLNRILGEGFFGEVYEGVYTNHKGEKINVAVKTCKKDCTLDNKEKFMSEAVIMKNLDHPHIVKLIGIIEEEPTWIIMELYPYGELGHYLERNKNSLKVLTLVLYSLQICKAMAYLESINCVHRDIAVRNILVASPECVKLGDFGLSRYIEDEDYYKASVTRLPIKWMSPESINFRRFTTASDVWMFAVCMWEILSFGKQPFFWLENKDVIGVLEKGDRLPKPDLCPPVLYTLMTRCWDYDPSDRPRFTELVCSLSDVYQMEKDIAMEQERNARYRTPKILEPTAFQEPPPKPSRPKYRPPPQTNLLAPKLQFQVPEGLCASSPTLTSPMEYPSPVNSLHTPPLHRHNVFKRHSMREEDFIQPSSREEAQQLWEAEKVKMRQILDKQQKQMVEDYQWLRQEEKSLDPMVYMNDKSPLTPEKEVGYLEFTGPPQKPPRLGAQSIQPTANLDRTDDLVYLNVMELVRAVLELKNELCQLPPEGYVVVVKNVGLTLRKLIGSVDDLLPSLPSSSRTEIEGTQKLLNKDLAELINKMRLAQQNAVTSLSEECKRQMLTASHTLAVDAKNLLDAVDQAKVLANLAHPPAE
Procedure: as §1

Fms = target: T9, Fms (Homo sapiens, UniProt P07333); conditions: read-out: Upstate KSS % inhibition at 1uM
T9 construct: gene CSF1R
Procedure: as §1

PKCbeta = target: T10, PKCbeta (Homo sapiens, UniProt P05771); conditions: read-out: Upstate KSS % inhibition at 1uM
T10 construct: gene PRKCB
Procedure: as §1

TrkB = target: T11, TrkB (Homo sapiens, UniProt Q16620); conditions: read-out: Upstate KSS % inhibition at 1uM
T11 construct: gene NTRK2
Procedure: as §1

MEK1 = target: T12, MEK1 (Homo sapiens, UniProt Q02750); conditions: read-out: Upstate KSS % inhibition at 1uM
T12 construct: gene MAP2K1
Procedure: as §1

PKCtheta = target: T13, PKCtheta (Homo sapiens, UniProt Q04759); conditions: read-out: Upstate KSS % inhibition at 1uM
T13 construct: gene PRKCQ
Procedure: as §1

PAK2 = PAK2 (Homo sapiens, UniProt Q13177); conditions: read-out: Upstate KSS % inhibition at 1uM
Sequence of PAK2 (Q13177 whole entry): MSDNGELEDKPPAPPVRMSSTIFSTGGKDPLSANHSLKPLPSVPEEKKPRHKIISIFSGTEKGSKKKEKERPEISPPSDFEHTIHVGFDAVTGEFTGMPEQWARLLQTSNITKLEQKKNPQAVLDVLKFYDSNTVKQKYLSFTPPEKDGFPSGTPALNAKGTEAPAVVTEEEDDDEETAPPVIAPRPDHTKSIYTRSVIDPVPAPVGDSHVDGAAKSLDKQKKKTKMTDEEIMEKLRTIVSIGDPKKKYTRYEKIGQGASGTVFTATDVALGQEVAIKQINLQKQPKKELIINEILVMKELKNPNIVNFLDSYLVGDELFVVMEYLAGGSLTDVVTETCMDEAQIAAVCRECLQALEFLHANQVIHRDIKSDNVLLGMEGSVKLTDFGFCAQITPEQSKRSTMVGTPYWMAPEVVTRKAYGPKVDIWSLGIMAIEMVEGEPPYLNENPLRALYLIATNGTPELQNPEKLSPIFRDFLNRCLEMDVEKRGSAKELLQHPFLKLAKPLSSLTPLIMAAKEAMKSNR
Procedure: as §1

c-RAF = target: T14, c-RAF (Homo sapiens, UniProt P04049); conditions: read-out: Upstate KSS % inhibition at 1uM
T14 construct: gene RAF1
Procedure: as §1

PASK = PASK (Homo sapiens, UniProt Q96RG2); conditions: read-out: Upstate KSS % inhibition at 1uM
Sequence of PASK (Q96RG2 whole entry): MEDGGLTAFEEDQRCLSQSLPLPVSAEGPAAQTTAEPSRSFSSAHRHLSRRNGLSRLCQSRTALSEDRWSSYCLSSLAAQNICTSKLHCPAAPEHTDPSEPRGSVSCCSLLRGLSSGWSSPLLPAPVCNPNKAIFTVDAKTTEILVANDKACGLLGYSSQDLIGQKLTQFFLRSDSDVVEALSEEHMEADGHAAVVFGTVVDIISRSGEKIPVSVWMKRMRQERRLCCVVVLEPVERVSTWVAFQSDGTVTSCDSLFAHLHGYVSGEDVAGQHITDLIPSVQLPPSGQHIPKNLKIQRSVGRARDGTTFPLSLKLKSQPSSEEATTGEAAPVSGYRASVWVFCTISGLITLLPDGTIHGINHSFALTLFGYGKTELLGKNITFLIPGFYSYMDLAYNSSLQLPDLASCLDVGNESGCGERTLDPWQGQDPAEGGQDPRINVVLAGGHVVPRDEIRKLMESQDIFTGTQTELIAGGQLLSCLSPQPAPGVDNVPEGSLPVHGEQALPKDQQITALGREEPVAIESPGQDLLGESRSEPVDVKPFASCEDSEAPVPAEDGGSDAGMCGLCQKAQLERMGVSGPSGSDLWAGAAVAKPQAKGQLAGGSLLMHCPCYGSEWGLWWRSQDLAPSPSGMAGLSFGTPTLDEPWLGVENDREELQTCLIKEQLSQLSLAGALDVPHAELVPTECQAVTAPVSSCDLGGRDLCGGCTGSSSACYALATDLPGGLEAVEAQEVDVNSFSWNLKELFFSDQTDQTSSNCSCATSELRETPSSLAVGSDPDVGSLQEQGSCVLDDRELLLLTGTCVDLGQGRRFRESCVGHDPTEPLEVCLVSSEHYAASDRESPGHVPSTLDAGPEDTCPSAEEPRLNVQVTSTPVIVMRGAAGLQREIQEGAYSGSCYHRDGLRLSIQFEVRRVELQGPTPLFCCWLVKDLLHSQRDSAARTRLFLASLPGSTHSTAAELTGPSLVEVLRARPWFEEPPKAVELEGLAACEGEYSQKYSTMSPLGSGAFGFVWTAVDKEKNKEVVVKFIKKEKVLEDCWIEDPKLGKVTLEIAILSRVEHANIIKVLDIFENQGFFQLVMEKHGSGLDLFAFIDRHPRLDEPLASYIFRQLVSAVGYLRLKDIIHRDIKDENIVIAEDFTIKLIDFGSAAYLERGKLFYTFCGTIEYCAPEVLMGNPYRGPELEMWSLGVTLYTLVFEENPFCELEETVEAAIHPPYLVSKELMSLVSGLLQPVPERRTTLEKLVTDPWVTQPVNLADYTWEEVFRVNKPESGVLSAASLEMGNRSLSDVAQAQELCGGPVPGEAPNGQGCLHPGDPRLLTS
Procedure: as §1

Sequence of PLK1 (P53350 whole entry): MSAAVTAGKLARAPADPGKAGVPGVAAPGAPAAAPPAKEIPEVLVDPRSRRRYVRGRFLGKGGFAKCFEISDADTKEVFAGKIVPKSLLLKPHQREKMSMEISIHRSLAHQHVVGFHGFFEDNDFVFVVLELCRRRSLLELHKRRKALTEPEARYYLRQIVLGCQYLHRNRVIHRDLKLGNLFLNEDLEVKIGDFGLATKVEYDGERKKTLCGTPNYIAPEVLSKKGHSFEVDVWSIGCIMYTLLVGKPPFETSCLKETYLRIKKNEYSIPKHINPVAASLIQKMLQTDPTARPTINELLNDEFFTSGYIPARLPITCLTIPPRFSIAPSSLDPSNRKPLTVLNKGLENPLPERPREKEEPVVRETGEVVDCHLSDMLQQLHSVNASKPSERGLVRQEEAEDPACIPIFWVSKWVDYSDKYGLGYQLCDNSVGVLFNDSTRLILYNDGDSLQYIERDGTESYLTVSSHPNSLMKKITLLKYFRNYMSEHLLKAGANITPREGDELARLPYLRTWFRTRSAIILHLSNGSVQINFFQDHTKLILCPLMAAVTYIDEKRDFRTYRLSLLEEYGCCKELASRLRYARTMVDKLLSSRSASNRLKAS

- Dundee KSS % inhibition at 1uM (PLK1; inhibitor, Dundee KSS % inhibition at 1uM, 1 µM): 10.1%
- inhibition at 1 µM (PLK1; read-out: Dundee KSS % inhibition at 1uM): 13.6%
- inhibition at 1 µM (CDK3/cyclinE): 5%
- inhibition at 1 µM (CDK2/CyclinA): 0%
- inhibition at 1 µM (CAMKIIbeta): -6%
- inhibition at 1 µM (TSSK2): 4%
- inhibition at 1 µM (rat CK1delta): -4%
- inhibition at 1 µM (GRK3): -1%
- inhibition at 1 µM (KDR): -9%
- inhibition at 1 µM (ROCK-11): 0%
- inhibition at 1 µM (LIMK1): -7%
- inhibition at 1 µM (PDGFRalpha): -28%
- inhibition at 1 µM (Yes): 16%
- inhibition at 1 µM (CaMKIV): -4%
- inhibition at 1 µM (ASK1): -11%
- inhibition at 1 µM (Pyk2): -17%
- inhibition at 1 µM (Fms): -12%
- inhibition at 1 µM (PKCbeta): 0%
- inhibition at 1 µM (TrkB): 10%
- inhibition at 1 µM (MEK1): -11%
- inhibition at 1 µM (PKCtheta): -10%
- inhibition at 1 µM (PAK2): -9%
- inhibition at 1 µM (c-RAF): -16%
- inhibition at 1 µM (PASK): -13%
SMILES: OCCn1cc(-c2cnc3nnn(Cc4ccc5ncccc5c4)c3n2)cn1 [METi, PF-04217903]

— article PMC3382171 (PLoS ONE, 2012)
